Results: US12121026B1, “N-[(1-phenyl-4H-1,2,4-triazol-3-yl) carbamothioyl]benzamide as an eco-friendly insecticidal agent against spodoptera littoralis” (KING FAISAL UNIVERSITY, priority 2023, dated 2024)
Converted amounts (≈) assume the structure as drawn. Like-named read-outs stand apart in the source and are kept apart here.

Tested on: second and fourth instars larvae of the laboratory strain of cotton leafworm, S. littoralis
Test: Insecticidal bioassay screening (castor leaf dip)
Type: in vivo
Conditions: for Toxicity index %: 72 hrs, Diflubenzuron's LC50/compound's LC50 x100; for LC90 (mg/L) at 95%: after 72 hrs of treatment; for LC50: Spodoptera littoralis, foliar
Protocol: Five concentrations (200, 100, 50, 25, 12.5 ppm) were designed for this synthetic compound and the reference Diflubenzuron compound as the dynamic ingredients based on ppm via diluting the commercial formulation.
In this experiment, castor leaves are immersed in each of the previously prepared concentrations of the components for 10 seconds and then left to dry for 60 minutes. Larvae of the second and fourth instars of each checked strain are prepared with treated leaves in gauze-covered glass containers for 72 hrs. An untreated control is made in which leaves are dipped in triton x-100 and distilled water only. Then the preserved leaves were removed & fresh, untreated leaves were provided for 72 hours. Three replicates (10 larvae each) were checked for each concentration. Daily inspection was carried out for all treatments and mortality percentages were recorded 3 days (72 hours) after treatment. The average mortality percentage was corrected employing Abbott's formula. The corrected mortality rate for each of the previously synthesized compounds is statistically calculated according to Finney (1970). Through this rate, the corresponding concentration test lines (LDP lines) are assessed.

[1] = 72 h, read-out: LC50 (mg/L) at 95%, 2nd instar larvae, after 72 hrs of treatment
[2] = 72 h, read-out: LC50 (mg/L) at 95%, 4th instar larvae, after 72 hrs of treatment
[3] = against Spodoptera littoralis under laboratory conditions, instar not stated

Row | SMILES | Toxicity index % (2nd instar larvae) [%] | LC90 (mg/L) at 95% (2nd instar larvae) [mg/L] | LC90 (mg/L) at 95% (2nd instar larvae, listed as N-[(1-phenyl-4H-1,2,4-triazol-3-yl)carbamothioyl]benzamide) | Toxicity index % (4th instar larvae) [%] | LC90 (mg/L) at 95% (4th instar larvae) [mg/L] | LC90 (mg/L) at 95% (4th instar larvae, listed as N-[(1-phenyl-4H-1,2,4-triazol-3-yl)carbamothioyl]benzamide) | LC50 [1] [mg/L] | LC50 [2] [mg/L] | LC50 [3] [mg/L]
1 | O=C(NC(=S)Nc1ncn(-c2ccccc2)n1)c1ccccc1 [Compound 1, N-[(1-phenyl-1H-1,2,4-triazol-3-yl)carbamothioyl]benzamide] | 22.8 | 1733.6 (≈ 5360 µM) | about 1733.6 mg/L | 36.7 | 4090.2 (≈ 12600 µM) | about 4090.2 mg/L | ~198 (≈ 613 µM) | ~392 (≈ 1210 µM) | 198 (≈ 613 µM)
2 | O=C(NC(=O)c1c(F)cccc1F)Nc1ccc(Cl)cc1 [Diflubenzuron, reference compound] | 100 | 520.0 (≈ 1670 µM) | – | 100 | 1540.5 (≈ 4960 µM) | – | 45.2 (≈ 145 µM) | 144 (≈ 464 µM) | 45.2 (≈ 145 µM)
